Earlier results as cited in paper PMC10005815 (Journal of Medicinal Chemistry, 2023).
pEC50: −log10 of the molar value. Where two headings read alike, the source gives them in different places.

Tested on: SARS-CoV-2

SMILES: N#C[C@]1(c2ccc3c(N)ncnn23)O[C@@H](CO)[C@H](O)[C@@H]1O [GS-441524]
- Increase of EC50 (resistance selection): 2.7–10.4 fold

SMILES: Cn1cnc(Cn2c(=O)[nH]/c(=N\c3cc4cn(C)nc4cc3Cl)n(Cc3cc(F)c(F)cc3F)c2=O)n1 [S-217622]
- pEC50 (read-out: SARS-CoV-2 VOCs EC50): 6.30 to 6.54

SMILES: COc1ccc(C(=O)Nc2cccc(C(F)(F)F)c2)cc1Nc1nc(-c2cccnc2)c2[nH]ccc2n1 [XMU-MP-7]
- pEC50 (read-out: EC50 against γ, δ, and o variants): > 8.16
